Data taken from EP4603105A1, “PHARMACEUTICAL COMPOSITION CONTAINING CYCLIC COMPOUND HAVING SELECTIVE KRAS INHIBITORY EFFECT AGAINST HRAS AND NRAS” (CHUGAI SEIYAKU KABUSHIKI KAISHA, priority 2022, dated 2024).
*1 amine or outer side, *2 acyl side, *3 side chain or, on linkers, in order; H or OH if unused. Where a SMILES comes first, the peptide text is derived from it. Bridges are numbered along the chain shown (N, C = ends). [ ]: non-standard residue; d: D form. The star is where a group is joined. hPhe(3-Cl-4-CF3) = N[C@@H](CCc1ccc(C(F)(F)F)c(Cl)c1)C(=O)O; NPrPhe(4-CF3) = CCCN[C@@H](Cc1ccc(C(F)(F)F)cc1)C(=O)O; NEtAsp = CCN([C@@H](CC(=O)[*:3])C(=O)[*:2])[*:1]; X30 = CCN([C@H](C(=O)[*:2])C1CCCC1)[*:1]; NMeGly(cPent) = CN[C@H](C(=O)O)C1CCCC1; NEtLeu = CCN[C@@H](CC(C)C)C(=O)O; NMeD = CN[C@@H](CC(=O)O)C(=O)O; NMeL = CN[C@@H](CC(C)C)C(=O)O; NMeNva = CCC[C@H](NC)C(=O)O; Morpholide = C1CN(*)CCO1; Ac4c = NC1(C(=O)O)CCC1; NPrGly = CCCNCC(=O)O; NEtG = CCNCC(=O)O; Sar = CNCC(=O)O

Legend:
[1] = biological target: HRAS wild-type protein (Homo sapiens, UniProt P01112); assay: Binding to HRAS by surface plasmon resonance (SPR), KD and KD ratio to KRAS; conditions: ratio of the KD value with respect to HRAS wild-type protein to the KD value with respect to KRAS
Procedure, shortened: (§1)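 Affinity is measured by surface plasmon resonance at 30°C against captured, GDP-loaded RAS carrying a biotinylated Avi tag. Compounds are titrated by single-cycle kinetics, and KD comes from a 1:1 fit.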

[2] = biological target: GDP-bound NRAS wild-type protein (Homo sapiens, UniProt P01111); assay: Binding to NRAS by surface plasmon resonance (SPR), KD and KD ratio to KRAS; conditions: ratio of the KD value with respect to GDP-bound NRAS wild-type protein to the KD value with respect to KRAS
Procedure, shortened: as §1

[3] = tested on: human lung cancer strain NCI-H441; format: cell-based
Procedure, shortened: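 Readout: […] after the ATP-based reagent. Compound: serial dilutions in dimethyl sulfoxide.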

Chain of GDP-bound NRAS wild-type protein (P01111 whole entry): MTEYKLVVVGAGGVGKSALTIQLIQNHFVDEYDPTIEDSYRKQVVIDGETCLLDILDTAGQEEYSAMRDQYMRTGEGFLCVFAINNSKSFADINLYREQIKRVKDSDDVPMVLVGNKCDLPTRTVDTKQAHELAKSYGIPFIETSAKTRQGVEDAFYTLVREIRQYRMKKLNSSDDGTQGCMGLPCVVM
Chain of HRAS wild-type protein (P01112 whole entry): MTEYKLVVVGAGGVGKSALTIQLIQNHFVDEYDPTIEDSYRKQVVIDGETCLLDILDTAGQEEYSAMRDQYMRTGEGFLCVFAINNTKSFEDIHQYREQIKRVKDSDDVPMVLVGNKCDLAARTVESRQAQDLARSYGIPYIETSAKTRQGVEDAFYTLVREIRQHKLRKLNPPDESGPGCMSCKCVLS

Row | SMILES | HRAS /KRAS [1] | NRAS /KRAS [2] | IC50 [3] [nM]
1 | CCC[C@H]1C(=O)N[C@@H]([C@@H](C)CC)C(=O)N(C)CC(=O)N(C)[C@H]2C/C=C\CCN(C2=O)[C@@H](Cc2ccc(C(F)(F)F)cc2)C(=O)N(C)CC(=O)N[C@@H](CCc2ccc(Cl)c(Cl)c2)C(=O)N2C[C@H](OCC)C[C@H]2C(=O)NC2(CC(C)(C)C2)C(=O)N(C)[C@@H](C2CCCC2)C(=O)N(C)[C@H](C(=O)N(C)C)CC(=O)N1C [PP1932] | A (a compound having 10 or more and less than 20 is denoted as A) | A (a compound having 10 or more and less than 20 is denoted as A) | 13.1
2 | CCC[C@H]1C(=O)N[C@@H]([C@@H](C)CC)C(=O)N(C)CC(=O)N(C)[C@H]2C/C=C\CCN(C2=O)[C@@H](Cc2ccc(C(F)(F)F)cc2)C(=O)N(C)CC(=O)N[C@@H](CCc2cc(F)c(C(F)(F)F)c(F)c2)C(=O)N(C)[C@@H](C)C(=O)NC2(CC(C)(C)C2)C(=O)N(C)[C@@H](C2CCCC2)C(=O)N(C)[C@H](C(=O)N(C)C)CC(=O)N1C [PP1934] | A (a compound having 10 or more and less than 20 is denoted as A) | A (a compound having 10 or more and less than 20 is denoted as A) | 68.5
3 | CC[C@H](C)[C@@H]1NC(=O)[C@H](CC)N(C)C(=O)C[C@@H](C(=O)N(C)C)N(C)C(=O)[C@H](C2CCCC2)N(C)C(=O)C2(CC(C)(C)C2)NC(=O)[C@H](CC)N(C)C(=O)[C@H](CCc2cc(F)c(C(F)(F)F)c(F)c2)NC(=O)CN(C)C(=O)[C@H](Cc2ccc(C(F)(F)F)cc2)N2CC/C=C\C[C@@H](C2=O)N(C)C(=O)CN(C)C1=O [PP1935] | A (a compound having 10 or more and less than 20 is denoted as A) | A (a compound having 10 or more and less than 20 is denoted as A) | 13.1
4 | CCC[C@H]1C(=O)N[C@@H]([C@@H](C)CC)C(=O)N(C)CC(=O)N(C)[C@H]2C/C=C\CCN(C2=O)[C@@H](Cc2ccc(C(F)(F)F)cc2)C(=O)N(C)CC(=O)N[C@@H](CCc2cc(F)c(C(F)(F)F)c(F)c2)C(=O)N(C)[C@@H](COC)C(=O)NC2(CC(C)(C)C2)C(=O)N(C)[C@@H](C2CCCC2)C(=O)N(C)[C@H](C(=O)N(C)C)CC(=O)N1C [PP1936] | A (a compound having 10 or more and less than 20 is denoted as A) | AA (a compound having 20 or more is denoted as AA) | 12.3
5 | CCC[C@H]1C(=O)N[C@@H]([C@@H](C)CC)C(=O)N(C)CC(=O)N(C)[C@H]2C/C=C\CCN(C2=O)[C@@H](Cc2ccc(C(F)(F)F)cc2)C(=O)N(C)CC(=O)N[C@@H](CCc2cc(F)c(C(F)(F)F)c(F)c2)C(=O)N2C[C@H](OCC)C[C@H]2C(=O)NC2(CC(C)(C)C2)C(=O)N(C)[C@@H]([C@@H](C)CC)C(=O)N(C)[C@H](C(=O)N(C)C)CC(=O)N1C [PP1941] | A (a compound having 10 or more and less than 20 is denoted as A) | A (a compound having 10 or more and less than 20 is denoted as A) | 9.2
6 | CCO[C@@H]1C[C@H]2C(=O)NC3(CC(C)(C)C3)C(=O)N(C)[C@@H](C3CCCCC3)C(=O)N(C)[C@H](C(=O)N(C)C)CC(=O)N(C)[C@@H](CC)C(=O)N[C@@H]([C@@H](C)CC)C(=O)N(C)CC(=O)N(C)[C@H]3C/C=C\CCN(C3=O)[C@@H](Cc3ccc(C(F)(F)F)cc3)C(=O)N(C)CC(=O)N[C@@H](CCc3cc(F)c(C(F)(F)F)c(F)c3)C(=O)N2C1 [PP1942] | A (a compound having 10 or more and less than 20 is denoted as A) | AA (a compound having 20 or more is denoted as AA) | 25.7
7 | CCC[C@H]1C(=O)N[C@@H]([C@@H](C)CC)C(=O)N(C)CC(=O)N(C)[C@H]2C/C=C\CCN(C2=O)[C@@H](Cc2ccc(C(F)(F)F)cc2)C(=O)N(C)CC(=O)N[C@@H](CCc2cc(F)c(C(F)(F)F)c(F)c2)C(=O)N2C[C@H](OCC)C[C@H]2C(=O)NC2(CC(C)(C)C2)C(=O)N(C)[C@@H](C2CCCC2)C(=O)N(C)[C@H](C(=O)N2CCC2)CC(=O)N1C [PP1943] | B (a compound having 3 or more and less than 10 is denoted as B) | A (a compound having 10 or more and less than 20 is denoted as A) | 9.2
8 | CCO[C@@H]1C[C@H]2C(=O)NC3(CC(C)(C)C3)C(=O)N(C)[C@@H](C3CCCC3)C(=O)N(C)[C@H](C(=O)N3CCCC3)CC(=O)N(C)[C@@H](CC)C(=O)N[C@@H]([C@@H](C)CC)C(=O)N(C)CC(=O)N(C)[C@H]3C/C=C\CCN(C3=O)[C@@H](Cc3ccc(C(F)(F)F)cc3)C(=O)N(C)CC(=O)N[C@@H](CCc3cc(F)c(C(F)(F)F)c(F)c3)C(=O)N2C1 [PP1944] | A (a compound having 10 or more and less than 20 is denoted as A) | A (a compound having 10 or more and less than 20 is denoted as A) | 14.8
9 | CCO[C@@H]1C[C@H]2C(=O)NC3(CC(C)(C)C3)C(=O)N(C)[C@@H](C3CCCC3)C(=O)N(C)[C@H](C(=O)N3CCCCC3)CC(=O)N(C)[C@@H](CC)C(=O)N[C@@H]([C@@H](C)CC)C(=O)N(C)CC(=O)N(C)[C@H]3C/C=C\CCN(C3=O)[C@@H](Cc3ccc(C(F)(F)F)cc3)C(=O)N(C)CC(=O)N[C@@H](CCc3cc(F)c(C(F)(F)F)c(F)c3)C(=O)N2C1 [PP1945] | A (a compound having 10 or more and less than 20 is denoted as A) | AA (a compound having 20 or more is denoted as AA) | 33.8
10 | CCCN1C(=O)CN(C)C(=O)CN(C)C(=O)[C@H]([C@@H](C)CC)NC(=O)[C@H](CC(C)C)N(CC)C(=O)C[C@@H](C(=O)N2CCOCC2)N(C)C(=O)[C@H](C2CCCC2)N(C)C(=O)C2(CCC2)NC(=O)[C@@H]2CCCN2C(=O)[C@H](CCc2ccc(C(F)(F)F)c(Cl)c2)NC(=O)CN(C)C(=O)[C@@H]1Cc1ccc(C(F)(F)F)cc1 [PP1946] ([NEtLeu]I[Sar][Sar][NPrPhe(4-CF3)][Sar][hPhe(3-Cl-4-CF3)]P[Ac4c][NMeGly(cPent)][NMeD]-Morpholide; lactam N-11) | C (A compound having a KD ratio of 0.1 or more and less than 3 is denoted as C) | B (a compound having 3 or more and less than 10 is denoted as B) | 15.2
11 | CCC[C@H]1C(=O)N[C@@H]([C@@H](C)CC)C(=O)N(CCC)CC(=O)N(C)CC(=O)N(CCC)[C@@H](Cc2ccc(C(F)(F)F)cc2)C(=O)N(C)CC(=O)N[C@@H](CCc2ccc(C(F)(F)F)c(Cl)c2)C(=O)N2CCC[C@H]2C(=O)NC2(CCC2)C(=O)N(C)[C@@H](C2CCCC2)C(=O)N(C)[C@H](C(=O)N2CCOCC2)CC(=O)N1C [PP1947] ([NMeNva]I[NPrGly][Sar][NPrPhe(4-CF3)][Sar][hPhe(3-Cl-4-CF3)]P[Ac4c][NMeGly(cPent)][NMeD]-Morpholide; lactam N-11) | B (a compound having 3 or more and less than 10 is denoted as B) | B (a compound having 3 or more and less than 10 is denoted as B) | 22
12 | CCCN1C(=O)CN(C)C(=O)CN(C)C(=O)[C@H]([C@@H](C)CC)NC(=O)[C@H](CC(C)C)N(C)C(=O)C[C@@H](C(=O)N2CCOCC2)N(C)C(=O)[C@H](C2CCCC2)N(C)C(=O)C2(CCC2)NC(=O)[C@@H]2CCCN2C(=O)[C@H](CCc2ccc(C(F)(F)F)c(Cl)c2)NC(=O)CN(CC)C(=O)[C@@H]1Cc1ccc(C(F)(F)F)cc1 [PP1950] ([NMeL]I[Sar][Sar][NPrPhe(4-CF3)][NEtG][hPhe(3-Cl-4-CF3)]P[Ac4c][NMeGly(cPent)][NMeD]-Morpholide; lactam N-11) | C (A compound having a KD ratio of 0.1 or more and less than 3 is denoted as C) | B (a compound having 3 or more and less than 10 is denoted as B) | 32.5
13 | CCCN1C(=O)CN(C)C(=O)CN(C)C(=O)[C@H]([C@@H](C)CC)NC(=O)[C@H](CC(C)C)N(C)C(=O)C[C@@H](C(=O)N2CCOCC2)N(C)C(=O)[C@H](C2CCCC2)N(CC)C(=O)C2(CCC2)NC(=O)[C@@H]2CCCN2C(=O)[C@H](CCc2ccc(C(F)(F)F)c(Cl)c2)NC(=O)CN(C)C(=O)[C@@H]1Cc1ccc(C(F)(F)F)cc1 [PP1952] ([NMeL]I[Sar][Sar][NPrPhe(4-CF3)][Sar][hPhe(3-Cl-4-CF3)]P[Ac4c][X30][NMeD]-Morpholide; lactam N-11) | B (a compound having 3 or more and less than 10 is denoted as B) | B (a compound having 3 or more and less than 10 is denoted as B) | 14
14 | CCCN1C(=O)CN(C)C(=O)CN(C)C(=O)[C@H]([C@@H](C)CC)NC(=O)[C@H](CC(C)C)N(C)C(=O)C[C@@H](C(=O)N2CCOCC2)N(CC)C(=O)[C@H](C2CCCC2)N(C)C(=O)C2(CCC2)NC(=O)[C@@H]2CCCN2C(=O)[C@H](CCc2ccc(C(F)(F)F)c(Cl)c2)NC(=O)CN(C)C(=O)[C@@H]1Cc1ccc(C(F)(F)F)cc1 [PP1953] ([NMeL]I[Sar][Sar][NPrPhe(4-CF3)][Sar][hPhe(3-Cl-4-CF3)]P[Ac4c][NMeGly(cPent)][NEtAsp]-Morpholide; lactam N-11) | B (a compound having 3 or more and less than 10 is denoted as B) | B (a compound having 3 or more and less than 10 is denoted as B) | 8.7
